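96-well plates; 48 h exposure; 5 concentrations. Endpoints by linear interpolation between flanking doses. Not reached: highest tested concentration assigned. GI50 is the concentration that inhibits growth by half. TGI: concentration producing complete growth inhibition.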 *1 amine or outer side, *2 acyl side, *3 side chain or, on linkers, in order; H or OH if unused. Where a SMILES comes first, the peptide text is derived from it. Bridges are numbered along the chain shown (N, C = ends). [ ]: non-standard residue; d: D form. The star is where a group is joined. ξ: configuration not given here. X34 = O=C(C(CCCCNO[*:3])N[*:1])[*:2]; Fmoc = O=C(OCC1c2ccccc2-c2ccccc21)*; ξW = NC(Cc1c[nH]c2ccccc12)C(=O)O; ξP = O=C(O)C1CCCN1
Experiments:
Assay in all cases: NCI anticancer screen, dose series, 48 h
UACC-257 melanoma = tested on: UACC-257 melanoma
MDA-N = tested on: MDA-N
786-0 renal = tested on: 786-0 renal
MALME-3M melanoma = tested on: MALME-3M melanoma
MCF7 breast = tested on: MCF7 breast
HOP-92 NSCLC = tested on: HOP-92 NSCLC
UACC-62 melanoma = tested on: UACC-62 melanoma
HS 578T breast = tested on: HS 578T breast
OVCAR-3 ovarian = tested on: OVCAR-3 ovarian
IGROV1 ovarian = tested on: IGROV1 ovarian
SW-620 colon = tested on: SW-620 colon

SMILES | TGI (UACC-257 melanoma) [µM] | TGI (MDA-N) [µM] | TGI (786-0 renal) [µM] | TGI (MALME-3M melanoma) [µM] | TGI (MCF7 breast) [µM] | TGI (HOP-92 NSCLC) [µM] | TGI (UACC-62 melanoma) [µM] | TGI (HS 578T breast) [µM] | TGI (OVCAR-3 ovarian) [µM] | TGI (IGROV1 ovarian) [µM] | TGI (SW-620 colon) [µM] | GI50 (UACC-257 melanoma) [µM] | GI50 (SW-620 colon) [µM] | GI50 (MALME-3M melanoma) [µM] | GI50 (MCF7 breast) [µM] | GI50 (HOP-92 NSCLC) [µM] | GI50 (UACC-62 melanoma) [µM] | GI50 (HS 578T breast) [µM] | GI50 (OVCAR-3 ovarian) [µM] | GI50 (IGROV1 ovarian) [µM]
CN1C(=O)C2C(=O)N(Cc3ccccc3)CC(=O)N2c2cccnc21 (centres undefined) | > 100 | > 100 | > 100 | > 100 | > 100 | > 100 | > 100 | > 100 | > 100 | > 100 |  |  |  |  |  |  |  |  |  | 
CC(C)=CCOC(=O)C(C)=[N+]=[N-] | > 100 | > 100 | > 100 | > 100 | > 100 |  | > 100 | > 100 | > 100 | > 100 | > 100 |  |  |  |  |  |  |  |  | 
Cc1cc(N(CCC#N)CCC#N)ccc1/C=N/NC(=O)c1cc(Cl)ccc1O | > 100 | > 100 | > 100 | > 100 | > 100 |  | > 100 | > 100 | > 100 | > 100 |  |  |  |  |  |  |  |  |  | 
Cc1nnc(Nc2ccccc2)o1 | > 100 | > 100 | > 100 | > 100 | > 100 |  | > 100 |  | > 100 |  | > 100 |  |  |  |  |  |  |  |  | 
c1ccc2c(c1)OC(N1CCCC1)c1cnc(N3CCCC3)nc1-2 (centres undefined) | 40 |  | > 100 | > 100 | 52.9 | 47.3 | > 100 | 89.7 | 97.5 |  | > 100 |  |  |  |  |  |  |  |  | 
NC(N)=NS(=O)(=O)c1ccc(NCc2c3ccccc3[n+]([O-])c3ccccc23)cc1 | > 100 |  | > 100 | 51.5 |  | 28.5 | > 100 |  | > 100 | > 100 | > 100 |  |  |  |  |  |  |  |  | 
O=C(O)CSc1nnc(COc2ccc(Cl)cc2)n1-c1ccccc1 | > 100 | > 100 | > 100 | > 100 | > 100 | > 100 | > 100 |  | > 100 | > 100 | > 100 |  |  |  |  |  |  |  |  | 
Cc1ccc(-c2c(C#N)c(-c3ccccc3)n(NS(=O)(=O)c3ccccc3)c(=O)c2C#N)cc1 | > 100 | > 100 | > 100 | > 100 | > 100 | > 100 | > 100 |  |  | > 100 | > 100 |  |  |  |  |  |  |  |  | 
NC(=O)CNC(=O)C1CCCN1C(=O)C1CCCCNOC(=O)CC[C@@H](NC(=O)OCC2c3ccccc3-c3ccccc32)C(=O)NC(Cc2c[nH]c3ccccc23)C(=O)N1 (some centres undefined) (Fmoc-[dE][ξW][X34][ξP]G-NH2; ester 1-3) | > 100 |  | > 100 | > 100 | > 100 | > 100 | > 100 | > 100 | > 100 | > 100 | > 100 |  |  |  |  |  |  |  |  | 
CCOC(=O)C1Cc2[nH]c3ccccc3c2C(C)C1C (centres undefined) | 32.3 |  | 28.2 | 33.2 |  | 32 | 22.7 |  | 30.1 | 33.9 | 33.6 |  |  |  |  |  |  |  |  | 
CSc1nc(Cl)c2c(n1)Sc1nc3cc4c(cc3n1C2O)OCCO4 (centres undefined) | 36.1 |  | 14.9 | 32.6 | 27.7 | 4.41 | 7.87 | 23.6 | 2.46 | 18 | 25.2 |  |  |  |  |  |  |  |  | 
CCOC(=O)CNC(=O)C(CSCc1ccc(Br)cc1)NC(=O)CCC(N)C(=O)OCC (centres undefined) | > 50 | > 50 | > 50 |  | > 50 | > 50 | > 50 | > 50 | > 50 | > 50 | > 50 |  |  |  |  |  |  |  |  | 
COc1ccc2[nH]c(O)c(/C=c3/cc4c(c(-c5cc(OC)c(OC)c(OC)c5)n3)=Nc3ccccc3-4)c2c1 | > 100 |  |  | > 100 | > 100 | 99.2 | > 100 | > 100 | > 100 | > 100 | > 100 | 29.7 | 4.96 | 63.6 | 2.11 | 3.43 | 13.6 | 9.81 | 8.48 | > 100
CCN1CC2=C(NC(=S)NC2c2ccc(Cl)cc2)/C(=C/c2ccc(Cl)cc2)C1 (centres undefined) | > 100 | > 100 | > 100 | > 100 | > 100 |  | > 100 | > 100 | > 100 | > 100 | > 100 |  |  |  |  |  |  |  |  | 
O=C(O)c1cc2c(cc1CC(Cc1ccc3c(c1)CCC3)C(=O)O)CCC2 (centres undefined) | > 100 | > 100 | > 100 | > 100 | > 100 | > 100 |  | > 100 | > 100 | > 100 | > 100 |  |  |  |  |  |  |  |  | 
CN(C)/N=N/c1nc2c(c(=O)n(C)c(=O)n2C)n1C | > 100 | > 100 | > 100 | > 100 | > 100 |  | > 100 | > 100 | > 100 | > 100 | > 100 |  |  |  |  |  |  |  |  | 
COc1ccc(C(C#N)NNC(=O)c2ccccc2O)cc1OC (centres undefined) | > 100 |  | > 100 | > 100 |  |  | 0.908 |  | > 100 | > 100 | > 100 |  |  |  |  |  |  |  |  | 
OCCCCCNc1c2ccccc2nc2ccccc12 | 4.77 | 7.42 | 12.9 | 4.15 | 6.11 |  | 3.92 | 8.57 | > 28.8 | 12.2 | 15.9 |  |  |  |  |  |  |  |  | 
CCCc1cc(=O)c2c(C)c3[nH]c4ccc(Cl)cc4c3c(C)c2[nH]1 | 4.74 | 3.9 | 3.08 | 23 | 3.37 | 5.1 |  | 32.7 |  | 4.7 | 4.29 |  |  |  |  |  |  |  |  | 
CC(CN1c2ccccc2Sc2ccccc21)N(C)C (centres undefined) | 39.4 |  | 27.9 | 34.5 | 42.8 | 35.4 | 33.9 |  | 31.1 | 34.7 | 45 |  |  |  |  |  |  |  |  | 

— PubChem BioAssay (NCI)
